# Source: ChEMBL document CHEMBL4390652, “Design, biological evaluation and X-ray crystallography of nanomolar multifunctional ligands targeting simultaneously acetylcholinesterase and glycogen synthase kinase-3” (Eur J Med Chem, 2019)
# Legend:
# [1] = tested on: Tyrosine-protein kinase ABL1 (Homo sapiens), P00519 [Q252H]; assay: Binding affinity to human non-phosphorylated ABL1 Q252H mutant (S229 to K512 residues) expressed in mammalian expression system assessed as residual binding level at 10 uM by Kinomescan method relative to control
# [2] = molecular target: Serine/threonine-protein kinase B-raf (Homo sapiens) (UniProt P15056); assay: Binding affinity to wild-type human partial length BRAF (S429 to E741 residues) expressed in mammalian expression system assessed as residual binding level at 10 uM by Kinomescan method relative to control
# Sequence of Serine/threonine-protein kinase B-raf (Homo sapiens) (P15056 whole entry, the tested form may be a part): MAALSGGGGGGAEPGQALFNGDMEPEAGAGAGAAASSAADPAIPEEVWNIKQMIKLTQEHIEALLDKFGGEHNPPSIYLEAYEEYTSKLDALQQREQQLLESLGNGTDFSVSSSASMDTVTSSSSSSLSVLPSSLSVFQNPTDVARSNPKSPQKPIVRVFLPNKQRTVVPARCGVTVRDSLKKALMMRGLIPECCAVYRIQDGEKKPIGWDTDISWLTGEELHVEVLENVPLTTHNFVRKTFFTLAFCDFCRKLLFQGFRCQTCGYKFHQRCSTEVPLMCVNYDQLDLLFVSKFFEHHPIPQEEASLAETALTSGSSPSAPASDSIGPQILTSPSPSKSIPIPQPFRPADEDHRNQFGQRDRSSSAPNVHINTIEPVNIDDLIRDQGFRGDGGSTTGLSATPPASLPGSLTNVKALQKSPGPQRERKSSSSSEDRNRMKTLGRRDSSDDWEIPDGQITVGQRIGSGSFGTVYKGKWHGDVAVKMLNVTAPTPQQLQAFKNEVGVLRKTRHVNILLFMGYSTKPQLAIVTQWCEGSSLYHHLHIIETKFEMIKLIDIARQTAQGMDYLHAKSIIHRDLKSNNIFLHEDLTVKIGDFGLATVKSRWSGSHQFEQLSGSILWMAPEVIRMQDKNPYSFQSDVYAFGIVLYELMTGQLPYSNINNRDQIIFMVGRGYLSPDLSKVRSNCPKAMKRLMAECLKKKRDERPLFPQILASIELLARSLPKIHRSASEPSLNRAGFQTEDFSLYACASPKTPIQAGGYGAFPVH
# [3] = molecular target: Cyclin-dependent kinase 8 (Homo sapiens) (UniProt P49336); assay: Binding affinity to wild-type human partial length CDK8 (M1 to T360 residues) expressed in bacterial expression system assessed as residual binding level at 10 uM by Kinomescan method relative to control
# Sequence of Cyclin-dependent kinase 8 (Homo sapiens) (P49336 whole entry, the tested form may be a part): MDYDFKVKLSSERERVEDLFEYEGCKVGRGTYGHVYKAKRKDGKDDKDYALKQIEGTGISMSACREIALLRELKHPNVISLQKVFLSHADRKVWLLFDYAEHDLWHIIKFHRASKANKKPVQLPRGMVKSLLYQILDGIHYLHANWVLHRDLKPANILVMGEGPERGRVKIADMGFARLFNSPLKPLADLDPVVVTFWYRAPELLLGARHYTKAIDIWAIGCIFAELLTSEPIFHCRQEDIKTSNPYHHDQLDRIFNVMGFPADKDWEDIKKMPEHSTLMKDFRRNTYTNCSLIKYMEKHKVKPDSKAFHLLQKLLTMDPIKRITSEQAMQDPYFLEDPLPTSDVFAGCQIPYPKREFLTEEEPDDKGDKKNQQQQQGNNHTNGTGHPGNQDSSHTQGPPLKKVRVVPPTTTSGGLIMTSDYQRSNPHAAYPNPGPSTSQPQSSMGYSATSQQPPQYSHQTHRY
# [4] = molecular target: Serine/threonine-protein kinase Chk2 (Homo sapiens) (UniProt O96017); assay: Binding affinity to wild-type human partial length CHEK2 (S253 to E574 residues) expressed in bacterial expression system assessed as residual binding level at 10 uM by Kinomescan method relative to control
# Sequence of Serine/threonine-protein kinase Chk2 (Homo sapiens) (O96017 whole entry, the tested form may be a part): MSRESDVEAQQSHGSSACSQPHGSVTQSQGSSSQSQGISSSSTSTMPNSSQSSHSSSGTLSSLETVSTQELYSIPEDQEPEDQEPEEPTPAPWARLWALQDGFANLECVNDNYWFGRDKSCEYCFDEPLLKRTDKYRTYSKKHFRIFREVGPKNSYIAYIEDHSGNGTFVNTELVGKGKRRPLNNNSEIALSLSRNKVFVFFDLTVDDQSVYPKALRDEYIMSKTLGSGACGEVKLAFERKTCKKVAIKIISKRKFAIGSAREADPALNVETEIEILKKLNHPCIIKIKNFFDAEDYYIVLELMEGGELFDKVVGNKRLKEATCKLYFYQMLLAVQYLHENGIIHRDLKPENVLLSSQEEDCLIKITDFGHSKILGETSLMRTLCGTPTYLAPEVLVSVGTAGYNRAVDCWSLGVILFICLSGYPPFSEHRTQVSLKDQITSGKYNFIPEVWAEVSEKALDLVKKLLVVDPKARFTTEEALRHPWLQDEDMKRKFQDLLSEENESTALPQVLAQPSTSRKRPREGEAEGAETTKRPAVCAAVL
# [5] = molecular target: Ephrin type-A receptor 2 (Homo sapiens) (UniProt P29317); assay: Binding affinity to wild-type human partial length EPHA2 (T593 to V891 residues) expressed in bacterial expression system assessed as residual binding level at 10 uM by Kinomescan method relative to control
# [6] = molecular target: Ephrin type-B receptor 4 (Homo sapiens) (UniProt P54760); assay: Binding affinity to wild-type human partial length EPHB4 (H585 to G892 residues) expressed in bacterial expression system assessed as residual binding level at 10 uM by Kinomescan method relative to control
# Sequence of Ephrin type-B receptor 4 (Homo sapiens) (P54760 whole entry, the tested form may be a part): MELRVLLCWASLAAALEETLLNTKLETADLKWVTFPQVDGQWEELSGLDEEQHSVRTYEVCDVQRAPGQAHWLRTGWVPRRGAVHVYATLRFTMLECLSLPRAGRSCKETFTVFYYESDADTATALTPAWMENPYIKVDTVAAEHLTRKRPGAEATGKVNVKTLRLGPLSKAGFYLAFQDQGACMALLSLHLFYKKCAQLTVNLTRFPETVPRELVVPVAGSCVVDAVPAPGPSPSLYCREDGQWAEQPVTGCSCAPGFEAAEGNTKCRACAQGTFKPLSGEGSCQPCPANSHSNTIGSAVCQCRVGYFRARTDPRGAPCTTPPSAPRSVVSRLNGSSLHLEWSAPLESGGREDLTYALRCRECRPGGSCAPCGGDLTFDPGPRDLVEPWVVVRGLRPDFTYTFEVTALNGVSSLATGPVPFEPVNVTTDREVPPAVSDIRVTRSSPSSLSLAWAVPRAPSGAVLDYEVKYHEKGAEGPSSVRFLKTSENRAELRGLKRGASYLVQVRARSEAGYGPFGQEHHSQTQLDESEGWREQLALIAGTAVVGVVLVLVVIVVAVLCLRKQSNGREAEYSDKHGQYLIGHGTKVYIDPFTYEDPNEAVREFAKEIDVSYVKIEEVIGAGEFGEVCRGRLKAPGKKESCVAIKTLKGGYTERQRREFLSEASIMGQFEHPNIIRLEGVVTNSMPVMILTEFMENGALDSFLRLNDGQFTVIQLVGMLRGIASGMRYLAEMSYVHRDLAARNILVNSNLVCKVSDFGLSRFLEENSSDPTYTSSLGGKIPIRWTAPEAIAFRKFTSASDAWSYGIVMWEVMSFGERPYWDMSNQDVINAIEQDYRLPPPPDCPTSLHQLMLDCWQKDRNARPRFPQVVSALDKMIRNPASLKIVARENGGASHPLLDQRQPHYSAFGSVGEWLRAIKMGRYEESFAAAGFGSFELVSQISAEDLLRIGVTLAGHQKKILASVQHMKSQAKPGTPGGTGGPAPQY
# [7] = molecular target: Mitogen-activated protein kinase kinase kinase kinase 1 (Homo sapiens) (UniProt Q92918); assay: Binding affinity to wild-type human full length HPK1 (M1 to R799 residues) expressed in bacterial expression system assessed as residual binding level at 10 uM by Kinomescan method relative to control
# Sequence of Mitogen-activated protein kinase kinase kinase kinase 1 (Homo sapiens) (Q92918 whole entry, looked up, the tested form may be a part): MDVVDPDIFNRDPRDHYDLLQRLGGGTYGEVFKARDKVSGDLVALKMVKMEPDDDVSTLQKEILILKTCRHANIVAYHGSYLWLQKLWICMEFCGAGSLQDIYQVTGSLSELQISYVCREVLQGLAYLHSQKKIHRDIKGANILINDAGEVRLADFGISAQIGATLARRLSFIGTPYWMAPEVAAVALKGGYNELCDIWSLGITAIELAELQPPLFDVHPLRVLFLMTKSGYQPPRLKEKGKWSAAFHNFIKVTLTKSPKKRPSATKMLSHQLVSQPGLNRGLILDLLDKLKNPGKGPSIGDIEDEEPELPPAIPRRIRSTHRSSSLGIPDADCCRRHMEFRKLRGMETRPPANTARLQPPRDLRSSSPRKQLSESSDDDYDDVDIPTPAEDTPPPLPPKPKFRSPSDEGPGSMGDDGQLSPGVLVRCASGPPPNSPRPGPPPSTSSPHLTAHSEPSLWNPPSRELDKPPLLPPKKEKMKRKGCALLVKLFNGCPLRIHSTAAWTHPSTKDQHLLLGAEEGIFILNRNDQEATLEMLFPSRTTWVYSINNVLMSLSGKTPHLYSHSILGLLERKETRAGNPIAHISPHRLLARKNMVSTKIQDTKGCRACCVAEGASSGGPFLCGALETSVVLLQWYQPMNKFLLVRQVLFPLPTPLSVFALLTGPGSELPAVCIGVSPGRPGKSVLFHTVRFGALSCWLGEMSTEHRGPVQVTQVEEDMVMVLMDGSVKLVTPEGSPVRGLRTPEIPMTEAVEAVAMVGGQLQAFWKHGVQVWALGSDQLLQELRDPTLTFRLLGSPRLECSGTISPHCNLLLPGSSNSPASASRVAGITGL
# [8] = molecular target: Interleukin-1 receptor-associated kinase 1 (Homo sapiens) (UniProt P51617); assay: Binding affinity to wild-type human partial length IRAK1 (R194 to S712 residues) expressed in mammalian expression system assessed as residual binding level at 10 uM by Kinomescan method relative to control
# [9] = molecular target: Interleukin-1 receptor-associated kinase 3 (Homo sapiens) (UniProt Q9Y616); assay: Binding affinity to wild-type human partial length IRAK3 (V147 to E596 residues) expressed in bacterial expression system assessed as residual binding level at 10 uM by Kinomescan method relative to control
# [10] = molecular target: Tyrosine-protein kinase JAK1 (Homo sapiens) (UniProt P23458); assay: Binding affinity to wild-type human partial length JAK1 JH2 pseudokinase domain (R537 to D855 residues) expressed in mammalian expression system assessed as residual binding level at 10 uM by Kinomescan method relative to control
# [11] = molecular target: Serine/threonine-protein kinase LATS1 (Homo sapiens) (UniProt O95835); assay: Binding affinity to wild-type human partial length LATS1 (Q678 to V1130 residues) expressed in bacterial expression system assessed as residual binding level at 10 uM by Kinomescan method relative to control
# [12] = molecular target: Mitogen-activated protein kinase kinase kinase 3 (Homo sapiens) (UniProt Q99759); assay: Binding affinity to wild-type human partial length MAP3K3 (E320 to Y626 residues) expressed in mammalian expression system assessed as residual binding level at 10 uM by Kinomescan method relative to control
# [13] = tested on: Hepatocyte growth factor receptor (Homo sapiens), P08581 [Y1235D]; assay: Binding affinity to human partial length MET Y1235D mutant (D1010 to S1367 residues) expressed in bacterial expression system assessed as residual binding level at 10 uM by Kinomescan method relative to control
# [14] = molecular target: MAP kinase-interacting serine/threonine-protein kinase 1 (Homo sapiens) (UniProt Q9BUB5); assay: Binding affinity to wild-type human full length MKNK1 (M1 to L424 residues) expressed in mammalian expression system assessed as residual binding level at 10 uM by Kinomescan method relative to control
# [15] = molecular target: Serine/threonine-protein kinase Nek6 (Homo sapiens) (UniProt Q9HC98); assay: Binding affinity to wild-type human full length NEK6 (M8 to T313 residues) expressed in bacterial expression system assessed as residual binding level at 10 uM by Kinomescan method relative to control
# Sequence of Serine/threonine-protein kinase Nek6 (Homo sapiens) (Q9HC98 whole entry, the tested form may be a part): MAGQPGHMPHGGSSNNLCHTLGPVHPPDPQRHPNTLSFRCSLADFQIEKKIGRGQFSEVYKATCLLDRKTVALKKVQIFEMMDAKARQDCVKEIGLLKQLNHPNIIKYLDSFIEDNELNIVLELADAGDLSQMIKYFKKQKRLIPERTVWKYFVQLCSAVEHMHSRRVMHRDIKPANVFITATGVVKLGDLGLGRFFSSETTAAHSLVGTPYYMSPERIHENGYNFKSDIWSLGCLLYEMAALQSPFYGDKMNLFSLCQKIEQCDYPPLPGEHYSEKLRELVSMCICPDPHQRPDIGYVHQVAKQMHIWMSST
# [16] = molecular target: 1-phosphatidylinositol 3-phosphate 5-kinase (Homo sapiens) (UniProt Q9Y2I7); assay: Binding affinity to wild-type human partial length PIKFYVE (F1512 to C2098 residues) expressed in mammalian expression system assessed as residual binding level at 10 uM by Kinomescan method relative to control
# [17] = molecular target: Protein kinase C epsilon type (Homo sapiens) (UniProt Q02156); assay: Binding affinity to wild-type human partial length PRKCE (A378 to P737 residues) expressed in mammalian expression system assessed as residual binding level at 10 uM by Kinomescan method relative to control
# Sequence of Protein kinase C epsilon type (Homo sapiens) (Q02156 whole entry, the tested form may be a part): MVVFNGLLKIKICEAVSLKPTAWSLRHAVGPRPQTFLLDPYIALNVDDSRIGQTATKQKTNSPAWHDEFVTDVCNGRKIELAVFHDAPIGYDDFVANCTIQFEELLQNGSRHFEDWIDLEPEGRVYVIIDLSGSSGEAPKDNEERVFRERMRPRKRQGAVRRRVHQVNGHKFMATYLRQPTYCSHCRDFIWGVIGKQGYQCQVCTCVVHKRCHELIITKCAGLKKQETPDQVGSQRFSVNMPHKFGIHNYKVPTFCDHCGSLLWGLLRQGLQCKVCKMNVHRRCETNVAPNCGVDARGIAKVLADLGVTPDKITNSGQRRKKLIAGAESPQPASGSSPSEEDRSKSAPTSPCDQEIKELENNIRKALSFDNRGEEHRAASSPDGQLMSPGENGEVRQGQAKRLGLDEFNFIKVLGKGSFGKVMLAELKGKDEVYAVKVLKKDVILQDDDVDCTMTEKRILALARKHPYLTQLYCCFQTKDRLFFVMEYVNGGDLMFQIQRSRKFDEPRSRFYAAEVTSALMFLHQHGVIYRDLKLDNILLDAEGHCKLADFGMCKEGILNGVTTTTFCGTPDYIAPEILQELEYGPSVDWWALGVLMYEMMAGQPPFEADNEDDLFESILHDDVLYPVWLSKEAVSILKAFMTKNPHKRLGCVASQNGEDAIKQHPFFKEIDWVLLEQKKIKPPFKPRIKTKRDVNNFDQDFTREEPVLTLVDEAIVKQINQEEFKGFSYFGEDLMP
# [18] = molecular target: Ribosomal protein S6 kinase alpha-4 (Homo sapiens) (UniProt O75676); assay: Binding affinity to wild-type human partial length N-terminal RPS6KA4 kinase domain 1 expressed in bacterial expression system assessed as residual binding level at 10 uM by Kinomescan method relative to control
# [19] = molecular target: Ribosomal protein S6 kinase alpha-2 (Homo sapiens) (UniProt Q15349); assay: Binding affinity to wild-type human partial length N-terminal RSK3 kinase domain 1 (M1 to Q385 residues) expressed in bacterial expression system assessed as residual binding level at 10 uM by Kinomescan method relative to control
# [20] = molecular target: Tyrosine-protein kinase SYK (Homo sapiens) (UniProt P43405); assay: Binding affinity to wild-type human partial length SYK (D354 to N635 residues) expressed in bacterial expression system assessed as residual binding level at 10 uM by Kinomescan method relative to control
# [21] = molecular target: Serine/threonine-protein kinase tousled-like 2 (Homo sapiens) (UniProt Q86UE8); assay: Binding affinity to wild-type human partial length TLK2 (E424 to N749 residues) expressed in bacterial expression system assessed as residual binding level at 10 uM by Kinomescan method relative to control
# [22] = molecular target: Tyrosine-protein kinase TXK (Homo sapiens) (UniProt P42681); assay: Binding affinity to wild-type human partial length TXK (L238 to W527 residues) expressed in bacterial expression system assessed as residual binding level at 10 uM by Kinomescan method relative to control
# [23] = molecular target: Non-receptor tyrosine-protein kinase TYK2 (Homo sapiens) (UniProt P29597); assay: Binding affinity to wild-type human partial length TYK2 JH2 pseudokinase domain (G556 to D888 residues) expressed in mammalian expression system assessed as residual binding level at 10 uM by Kinomescan method relative to control
# [24] = molecular target: Serine/threonine-protein kinase VRK2 (Homo sapiens) (UniProt Q86Y07); assay: Binding affinity to wild-type human partial length VRK2 (M1 to T336 residues) expressed in mammalian expression system assessed as residual binding level at 10 uM by Kinomescan method relative to control
smiles,measurement,setting,value
O=C(Nc1cc(-c2cn(CCNc3c4c(nc5ccccc35)CCCC4)nn2)ccn1)Nc1cccc2c1C1CCCCN1C2=O (racemic),Activity,[1],4.5%
same,Activity,[2],51%
same,Activity,[3],64%
same,Activity,[4],90%
same,Activity,[5],91%
same,Activity,[6],100%
same,Activity,[7],12%
same,Activity,[8],8.7%
same,Activity,[9],16%
same,Activity,[10],36%
same,Activity,[11],90%
same,Activity,[12],22%
same,Activity,[13],88%
same,Activity,[14],100%
same,Activity,[15],28%
same,Activity,[16],15%
same,Activity,[17],100%
same,Activity,[18],22%
same,Activity,[19],7.1%
same,Activity,[20],91%
same,Activity,[21],37%
same,Activity,[22],95%
same,Activity,[23],19%
same,Activity,[24],15%
